Experimental data reported in patent publication US11840495B2, “Compositions and methods related to di-substituted bicyclo[2.2.1] heptanamine-containing compounds” (The Broad Institute, Inc., priority 2020, dated 2023).
Where two headings read alike, the source gives them in different places.

Assays:
MUC1-fs = assay: Immunofluorescence imaging of MUC1-fs in P cells (Example 2); type: cell-based; settings: for EC50: 48 hr incubation, MUC1-fs; for ECMax (%) / Emax: 48 hr; for ECMax (%): DMSO = 0, JQ1 (250 nM) = −100% activity; for Emax: DMSO = 0, JQ1 = −100% activity, in %
Procedure: (§1) P cells were seeded 24 hr prior to compound treatment at a density of 12,000 cells/well in 384 well Cell Carrier Ultra plates (6057308, Perkin Elmer), pre-coated with 0.25 mg/mL Synthemax II SC Substrate (3535, Corning). Compounds were used at 5 doses (35, 3.5, 0.35, 0.035 and 0.0035 μM) for the primary screen and 10 doses (16, 5.6, 1.8, 0.6, 0.21, 0.07, 0.02, 0.008, 0.002 and 0.0008 μM) for the following screens. The compounds, in two replicates, were transferred from compound source plates to the cell plates using the HighRes Pin Tool. DMSO was used as a negative control and JQ1 (250 nM) (a bromodomain inhibitor) was chosen as a positive control, based on earlier studies showing its potent effect on reducing total MUC1 mRNA levels (data not shown). After 48 hr incubation, cells were fixed for 20 min in 4% PFA (Electron Microscopy Sciences) in PBS, washed twice, then permeabilized (10 min) with 0.5% Triton-X100 (X100-100ML, Sigma-Aldrich) in PBS and washed once more. Cells were blocked for 10 min at RT with Blocking solution (100 mM Tris HCL pH8; 150 mM NaCL; 5 g/L Blocking Reagent [11096176001, Roche]), then incubated 90 min at RT with one of the following primary antibodies in Roche Blocking solution: 1:500, monoclonal Fab-A-VSH anti-MUC1-fs, AbD22655.2, Bio-Rad; 1:2000, monoclonal mouse anti-MUC1 (214D4), 05-652-KC, Millipore; 1:1000, monoclonal, Rabbit anti-GM130 (D6B1) XP, 12480, Cell signaling technology. The primary antibody cocktail was incubated at RT for 1.5 hr, followed by four PBS wash cycles. The secondary antibody cocktail contained four components that were all prepared at a 1:1000 dilution in the Roche blocking solution and consisted of Alexa Fluor® 488-conjugated AffiniPure F(ab′)2 Fragment Goat anti-Human IgG, 109-546-097, Jackson Immunoresearch; Alexa Fluor® 647-conjugated Goat anti-Rabbit IgG, A-21246, Thermo Fisher Scientific®; Alexa Fluor® 546 Goat anti-mouse IgG, A-21123, Thermo Fisher Scientific® and Hoechst 33342 stain (62249, Thermo Fisher Scientific®). The secondary antibody cocktail was incubated at RT for 45 min, followed by four PBS wash cycles. Finally, plates were sealed with a Plate Loc plate and stored in Liconic incubator at 10° C. until imaging. Following image analysis, three parameters were selected, i) MUC1-fs and ii) MUC1-wt total cytoplasm intensity (averaged per cell) and iii) cell number as was detected by Hoechst 33342 stained nuclei. The levels of MUC1-fs and MUC1-wt found following DMSO and JQ1 were defined as 0 and −100% activity, respectively. The values obtained for all compounds were normalized accordingly. Cell number was normalized to DMSO control.

MUC1-wt = assay: Immunofluorescence imaging of MUC1-wt in P cells (Example 2); type: cell-based; settings: for EC50: 48 hr incubation, MUC1-wt; for WT ECMax (%) / WT EMax: 48 hr; for WT ECMax (%): DMSO = 0, JQ1 (250 nM) = −100% activity; for WT EMax: DMSO = 0, JQ1 = −100% activity, in %
Procedure: as §1

Row | Structure (SMILES) | EC50 (MUC1-fs; read-out: EC50(Spot)) | ECMax (%) (MUC1-fs) | EC50 (MUC1-wt; read-out: WT EC50 (Cytoplasm)) | WT ECMax (%) (MUC1-wt) | EC50 (MUC1-fs; read-out: EC50) | Emax (MUC1-fs) | EC50 (MUC1-wt; read-out: WT EC50) | WT EMax (MUC1-wt) | EC50 (MUC1-fs; hydrochloride, read-out: EC50) | EC50 (MUC1-wt; hydrochloride, read-out: WT EC50)
1 | CC1CC[C@]2(C1)[C@H]1CC[C@H](C1)[C@H]2N.Cl (mixture of isomers) [Compound 210] | 0.12 µM | −62.47% | > 32 µM | −10.67% | – | – | – | – | – | –
2 | CC[C@]1(C)[C@H]2CC[C@H](C2)[C@H]1N.Cl (racemic) [Compound 202-rac] | 0.05 µM | −76.19% | 2.11 µM | 125.82% | – | – | – | – | – | –
3 | CCC1(CC)[C@H]2CC[C@H](C2)[C@H]1N.Cl (racemic) [Compound 204] | 0.01 µM | −85.02% | 1.01 µM | 190.26% | – | – | – | – | – | –
4 | CCCC1(CCC)[C@H]2CC[C@H](C2)[C@H]1N.Cl (racemic) [Compound 205] | > 32 µM | −3.08% | > 32 µM | −12.24% | – | – | – | – | – | –
5 | C[C@@]1(Cc2ccccc2)[C@H]2CC[C@H](C2)[C@H]1N.Cl (racemic) [Compound 207] | > 32 µM | −25.6% | > 32 µM | 5.9% | – | – | – | – | – | –
6 | Cl.N[C@@H]1[C@@H]2CC[C@@H](C2)C12CCC2 (racemic) [Compound 208, rac-spiro[bicyclo[2.2.1]heptane-3,1′-cyclobutan]-2-endo-amine hydrochloride] | 0.13 µM | −65.35% | > 5.6 µM | ~125% | – | – | – | – | – | –
7 | Cl.N[C@@H]1[C@@H]2CC[C@@H](C2)[C@]12CC=CCC2 (racemic) [Compound 213] | 0.02 µM | −86.49% | > 1.8 µM | ~175% | – | – | – | – | – | –
8 | Cl.N[C@@H]1[C@@H]2CC[C@@H](C2)C12CCCCCC2 (racemic) [Compound 215] | 0.11 µM | −56.54% | 8.87 µM | 63% | – | – | – | – | – | –
9 | C[C@]1(c2ccccc2)[C@H]2CC[C@H](C2)[C@H]1N (racemic) [Compound 218, rac-(1R,2R,3R,4S)-3-methyl-3-phenylbicyclo[2.2.1]heptan-2-amine] | – | – | – | – | 13.5 µM | −54.7 | > 16 µM | −15.4 | – | –
10 | Cl.NCC1CCCC2(C1)C1CCC(C1)C2N (racemic) [Compound 221, rac-3′-(aminomethyl)spiro[bicyclo[2.2.1]heptane-2,1′-cyclohexan]-3-amine hydrochloride] | – | – | – | – | > 16 µM | 16.2 | > 16 µM | 15.6 | – | –
11 | CN(C)CC1CCCC2(C1)C1CCC(C1)C2N.Cl (racemic) [Compound 223, rac-3′-((dimethylamino)methyl)spiro[bicyclo[2.2.1]heptane-2,1′-cyclohexan]-3-amine hydrochloride] | – | – | – | – | > 16 µM | −12 | > 16 µM | 25.7 | – | –
12 | Cl.NC(=O)C1CCCC2(C1)C1CCC(C1)C2N (racemic) [Compound 224, rac-3-aminospiro[bicyclo[2.2.1]heptane-2,1′-cyclohexane]-3′-carboxamide hydrochloride] | – | – | – | – | > 16 µM | −17.0 | > 16 µM | −24.4 | – | –
13 | COCC1CCCC2(C1)C1CCC(C1)C2N.Cl (racemic) [Compound 225-1, rac-3′-(methoxymethyl)spiro[bicyclo[2.2.1]heptane-2,1′-cyclohexan]-3-amine hydrogen chloride] | – | – | – | – | > 16 µM | −13.3 | > 16 µM | −15.8 | – | –
14 | COCC1CCCC2(C1)C1CCC(C1)C2N.Cl (racemic) [Compound 225-2, rac-3′-(methoxymethyl)spiro[bicyclo[2.2.1]heptane-2,1′-cyclohexan]-3-amine hydrogen chloride] | – | – | – | – | 10.1 µM | −20.7 | > 16 µM | −11.1 | – | –
15 | Cl.NC1C2CCC(C2)C12CC(O)C(O)C2 (racemic) [Compound 228, rac-3-aminospiro[bicyclo[2.2.1]heptane-2,1′-cyclopentane]-3′,4′-diol hydrochloride] | – | – | – | – | > 16 µM | −15.1 | > 16 µM | −10.2 | – | –
16 | COC1CC2(CC1OC)C1CCC(C1)C2N.Cl (racemic) [Compound 229, rac-3′,4′-dimethoxyspiro[bicyclo[2.2.1]heptane-2,1′-cyclopentan]-3-amine hydrochloride] | – | – | – | – | 15.5 µM | −48.1 | > 16 µM | 10.3 | – | –
17 | CC(=O)OC1CC2(CC1OC(C)=O)C1CCC(C1)C2N.Cl (racemic) [Compound 230, rac-3-aminospiro[bicyclo[2.2.1]heptane-2,1′-cyclopentane]-3′,4′-diyl diacetate hydrochloride] | – | – | – | – | > 16 µM | −12.8 | > 16 µM | −16.1 | – | –
18 | NC1C2CCC(C2)C12CCCC2 (racemic) [Compound 232, rac-spiro[bicyclo[2.2.1]heptane-2,1′-cyclopentan]-3-amine] | – | – | – | – | 5.99 µM | −68.6 | > 16 µM | 6.6 | – | –
19 | CC1(N)C2CCC(C2)C12CCCC2 (racemic) [Compound 233, rac-3-methylspiro[bicyclo[2.2.1]heptane-2,1′-cyclopentan]-3-amine] | – | – | – | – | 0.077 µM | −86.9 | > 16 µM | 21.8 | – | –
20 | Cl.NC1C2CCC(C2)C12CCOCC2 (racemic) [Compound 235, rac-tetrahydrospiro[bicyclo[2.2.1]heptane-2,4′-pyran]-3-amine hydrochloride] | – | – | – | – | 1.77 µM | −88.6 | > 16 µM | −6.6 | – | –
21 | NC1C2CCC(C2)C12CC1CC1C2 (racemic) [Compound 236, rac-spiro[bicyclo[2.2.1]heptane-2,3′-bicyclo[3.1.0]hexan]-3-amine] | – | – | – | – | 0.962 µM | −89.6 | > 16 µM | −20.3 | – | –
22 | CC12CC3(CC1(C)C2)C1CCC(C1)C3N.Cl (racemic) [Compound 237, rac-1′,5′-dimethylspiro[bicyclo[2.2.1]heptane-2,3′-bicyclo[3.1.0]hexan]-3-amine hydrochloride] | – | – | – | – | 13.3 µM | −45.1 | > 16 µM | −10.0 | – | –
23 | Cl.NC1C2CCC(C2)C12CC1CCC2C1 (racemic) [Compound 238, rac-2,2′-spirobi[bicyclo[2.2.1]heptan]-3-amine hydrochloride] | – | – | – | – | – | −96.4 | – | 68.9 | 0.032 µM | 0.74 µM
24 | NC1C2CCC(C2)C12CC1CCC2C1 (racemic) [Compound 238-A, rac-2,2′-spirobi[bicyclo[2.2.1]heptan]-3-amine] | – | – | – | – | 0.006 µM | −108.1 | 1.8 µM | 38.7 | – | –
25 | Cl.N[C@@H]1[C@@H]2CC[C@@H](C2)[C@]12CCC[C@H](CO)C2 [Compound 220-P1, ((1S,2R,3R,3′S,4R)-3-aminospiro[bicyclo[2.2.1]heptane-2,1′-cyclohexan]-3′-yl)methanol hydrochloride] | – | – | – | – | > 16 µM | 6.0 | – | – | – | –
26 | Cl.N[C@@H]1[C@@H]2CC[C@@H](C2)[C@]12CCC[C@@H](CO)C2 [Compound 220-P2, ((1S,2R,3R,3′R,4R)-3-aminospiro[bicyclo[2.2.1]heptane-2,1′-cyclohexan]-3′-yl)methanol hydrochloride] | – | – | – | – | > 16 µM | 9.4 | – | – | – | –
27 | CC[C@@]1(Cc2ccccc2)[C@H]2CC[C@H](C2)[C@H]1N [Compound 222-P1, (1R,2R,3R,4S)-3-benzyl-3-ethylbicyclo[2.2.1]heptan-2-amine] | – | – | – | – | > 16 µM | −17.9 | – | – | – | –
28 | CC[C@]1(Cc2ccccc2)[C@@H]2CC[C@@H](C2)[C@@H]1N [Compound 222-P2, (1S,2S,3S,4R)-3-benzyl-3-ethylbicyclo[2.2.1]heptan-2-amine] | – | – | – | – | > 16 µM | 19.0 | – | – | – | –
